Assays:
[1] = system: streptavidin donor beads / biotin-BSA acceptor beads; conditions: primary counterscreen
[2] = molecular target: SARS-CoV-2 spike protein RBD (RBD-Fc) binding to human ACE2 (ACE2-His-Avi) (Homo sapiens, UniProt Q9BYF1); test: biochemical; parameters: species or system human ACE2 / SARS-CoV-2 spike
ACE2 = conditions: at current writing; ref NCATS OpenData Portal; cited from earlier work
[3] = system: biotinylated rabbit IgG (Fc-protein A and streptavidin–biotin interactions); test: Biotin-IgG counterassay; conditions: cherry-pick hit confirmation
cytopathic effects (CPE) = conditions: at current writing; ref NCATS OpenData Portal; cited from earlier work
[4] = molecular target: RBD-Fc interaction with ACE2-His-Avi (Homo sapiens, UniProt Q9BYF1); format: binding, human ACE2 / SARS-CoV-2 spike
Sequence of RBD-Fc interaction with ACE2-His-Avi (Q9BYF1 18-740): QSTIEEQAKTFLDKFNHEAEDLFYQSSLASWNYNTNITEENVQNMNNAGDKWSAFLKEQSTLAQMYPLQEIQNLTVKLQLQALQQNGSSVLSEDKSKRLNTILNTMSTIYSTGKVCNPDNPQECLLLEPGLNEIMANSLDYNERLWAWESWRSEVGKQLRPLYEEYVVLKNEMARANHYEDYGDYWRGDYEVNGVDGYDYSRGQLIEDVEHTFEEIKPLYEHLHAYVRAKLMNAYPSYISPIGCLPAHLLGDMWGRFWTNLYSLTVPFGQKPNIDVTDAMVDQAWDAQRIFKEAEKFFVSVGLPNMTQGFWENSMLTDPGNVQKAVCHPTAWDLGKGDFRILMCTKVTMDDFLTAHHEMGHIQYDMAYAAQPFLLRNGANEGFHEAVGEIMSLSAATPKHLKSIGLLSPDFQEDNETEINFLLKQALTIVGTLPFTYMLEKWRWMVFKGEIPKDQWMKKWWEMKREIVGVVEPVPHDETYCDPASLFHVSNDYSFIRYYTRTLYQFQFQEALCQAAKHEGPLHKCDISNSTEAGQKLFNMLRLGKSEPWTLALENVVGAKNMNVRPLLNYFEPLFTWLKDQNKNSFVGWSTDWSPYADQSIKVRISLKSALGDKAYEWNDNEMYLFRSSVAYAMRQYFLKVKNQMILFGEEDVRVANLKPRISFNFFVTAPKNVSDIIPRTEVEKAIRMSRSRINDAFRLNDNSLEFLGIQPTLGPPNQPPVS

Sequence of SARS-CoV-2 spike protein RBD (RBD-Fc) binding to human ACE2 (ACE2-His-Avi) (Q9BYF1 18-740): as above

In the case of `CC(C)(O/N=C(\C(=O)N[C@@H]1C(=O)N2C(C(=O)[O-])=C(C[n+]3ccccc3)CS[C@H]12)c1csc(N)n1)C(=O)O` [ceftazidime], the “activity in the TruHits counterscreen” value [1] is reported as “no significant activity” and the “ACE2–RBD binding inhibition in the primary AlphaLISA screen” value (“ACE2–RBD binding inhibition” below) [2] is reported as “no significant activity”.
With `CCOC(=O)[C@H](CCc1ccccc1)N[C@@H](C)C(=O)N1Cc2cc(OC)c(OC)cc2C[C@H]1C(=O)O` [moexipril] the “ACE2–RBD binding inhibition” value [2] was “none showed ACE2–RBD binding inhibition”.
For `O=C(O[C@@H]1O[C@@H]2COC(=O)c3cc(O)c(O)c(O)c3-c3c(cc(O)c(O)c3O)C(=O)O[C@H]([C@H]1O)[C@@H]2O)c1cc(O)c(O)c(O)c1` [Corilagin], the “activity in the ACE2 enzymatic assay” value (ACE2) is listed as “weak activity”, the “activity in biotin-IgG counter assay” value [3] is listed as “not the biotin-IgG counter assay” and the “activity in blocking cytopathic effects (CPE)” value (cytopathic effects (CPE)) is listed as “no activity”. The IC50 [2] was 5.5 µM.
For ACE2-His, the “competition for ACE2–RBD binding, AlphaLISA signal” value [4] was “dose-dependent signal loss”.
For `NCCCC[C@H](N[C@@H](CCc1ccccc1)C(=O)O)C(=O)N1CCC[C@H]1C(=O)O` [lisinopril], the “ACE2–RBD binding inhibition” value [2] was “none showed ACE2–RBD binding inhibition”.
In the case of `CCOC(=O)[C@H](CCc1ccccc1)N[C@@H](C)C(=O)N1CCC[C@H]1C(=O)O` [enalapril], the “ACE2–RBD binding inhibition” value [2] is reported as “none showed ACE2–RBD binding inhibition”.
For `CCC(CC)COC(=O)[C@H](C)N[P@](=O)(OC[C@H]1O[C@@](C#N)(c2ccc3c(N)ncnn23)[C@H](O)[C@@H]1O)Oc1ccccc1` [remdesivir], the “activity in the TruHits counterscreen” value [1] was “no significant activity” and the “ACE2–RBD binding inhibition” value [2] was “no significant activity”.
